Values of other authors, collected in paper PMC7904743, “WIDOCK: a reactive docking protocol for virtual screening of covalent inhibitors” (Journal of Computer-Aided Molecular Design, 2021).
Where two headings read alike, the source gives them in different places.

Legend:
[1] = thiol reactivity, cited from earlier work
NUDT7 = details: protein labeling at 200 μM; experimental actives if % labeling higher than 50%; cited from earlier work
OTUB2 = OTUB2 protein labeling; experimental actives if % labeling higher than 50%; cited from earlier work
[2] = natural log of average kinetic rate constant
[3] = natural log of average rate constant

SMILES | ln(avg k) [1, 2] | ln(avg k) [1, 3] | NUDT7 % labeling (NUDT7) | OTUB2 % labeling (OTUB2)
O=C(CCl)N1CCC(C(=O)N2CCCCCC2)CC1 [PCM-0102781, O=C(CCl)N1CCC(C(=O)N2CCCCCC2)CC1] | -15.500 | -15.500 | 0% | 0%
CN(C(=O)CCl)C(C)(C)C#N [PCM-0102782, CN(C(=O)CCl)C(C)(C)C#N] | -16.514 | -16.514 | 0% | 0%
CC(c1ccc(F)cc1)N(C)C(=O)CCl (centres unmarked) [PCM-0102783, CC(c1ccc(F)cc1)N(C)C(=O)CCl] | -16.224 | -16.224 | 19% | 0%
O=C(CCl)Nc1nc(-c2cccs2)cs1 [PCM-0102784, O=C(CCl)Nc1nc(-c2cccs2)cs1] | -16.029 | -16.029 | 77% | 7%
Cc1ccsc1CN(C)C(=O)CCl [PCM-0102785, Cc1ccsc1CN(C)C(=O)CCl] | -15.849 | -15.849 | 20% | 0%
CC(C)(C)OC(=O)N1CCN(C(=O)CCl)CC1 [PCM-0102786, CC(C)(C)OC(=O)N1CCN(C(=O)CCl)CC1] | -15.946 | -15.946 | 0% | 0%
CN(Cc1ccccc1F)C(=O)CCl [PCM-0102787, CN(Cc1ccccc1F)C(=O)CCl] | -16.194 | -16.194 | 0% | 0%
CC1CC(C)CN(C(=O)CCl)C1 (centres unmarked) [PCM-0102789, CC1CC(C)CN(C(=O)CCl)C1] | -16.705 | -16.705 | 0% | 8%
O=C(CCl)NCc1cc(F)cc(F)c1 [PCM-0102790, O=C(CCl)NCc1cc(F)cc(F)c1] | -16.548 | -16.548 | 0% | 0%
CC(c1nc2ccccc2s1)N(C)C(=O)CCl (centres unmarked) [PCM-0102793, CC(c1nc2ccccc2s1)N(C)C(=O)CCl] | -15.755 | -15.755 | 0% | 19%
O=C(CCl)NCC1CCCc2ccccc21 (centres unmarked) [PCM-0102794, O=C(CCl)NCC1CCCc2ccccc21] | -16.479 | -16.479 | 0% | 34%
CC1CN(C(=O)CCl)CC(C)O1 (centres unmarked) [PCM-0102796, CC1CN(C(=O)CCl)CC(C)O1] | -15.522 | -15.522 | 0% | 0%
O=C(CCl)Nc1cccc(Cl)c1Cl [PCM-0102797, O=C(CCl)Nc1cccc(Cl)c1Cl] | -15.881 | -15.881 | 15% | 0%
CC(NC(=O)CCl)c1ccco1 (centres unmarked) [PCM-0102798, CC(NC(=O)CCl)c1ccco1] | -16.737 | -16.737 | 14% | 19%
Cc1cc(Br)ccc1NC(=O)CCl [PCM-0102799, Cc1cc(Br)ccc1NC(=O)CCl] | -16.305 | -16.305 | 24% | 61%
O=C(CCl)NCc1nc2ccccc2s1 [PCM-0102803, O=C(CCl)NCc1nc2ccccc2s1] | -16.252 | -16.252 | 0% | 37%

SMILES | ln(avg k) [1, 2] | ln(avg k) [1, 3] | NUDT7 % labeling (NUDT7) | OTUB2 % labeling (OTUB2)
NS(=O)(=O)c1ccc(NC(=O)CCl)cc1 [PCM-0102807, NS(=O)(=O)c1ccc(NC(=O)CCl)cc1] | -15.463 | -15.463 | 0% | 29%
O=C(CCl)Nc1nc(-c2ccc(F)cc2)cs1 [PCM-0102809, O=C(CCl)Nc1nc(-c2ccc(F)cc2)cs1] | -15.559 | -15.559 | 37% | 21%
C#CCN1CCN(C(=O)CCl)CC1 [PCM-0102811, C#CCN1CCN(C(=O)CCl)CC1] | -15.973 | -15.973 | 0% | 0%
O=C(CCl)N1CCN(Cc2ccc3c(c2)CCO3)CC1 [PCM-0102814, O=C(CCl)N1CCN(Cc2ccc3c(c2)CCO3)CC1] | -15.537 | -15.537 | 0% | 0%
CNC(=O)C1CCN(C(=O)CCl)CC1 [PCM-0102815, CNC(=O)C1CCN(C(=O)CCl)CC1] | -15.403 | -15.403 | 0% | 8%
CC(NC(=O)CCl)c1ccc2c(c1)CC(=O)N2 (centres unmarked) [PCM-0102816, CC(NC(=O)CCl)c1ccc2c(c1)CC(=O)N2] | -16.367 | -16.367 | 22% | 29%
CC(C)(C)NC(=O)CNC(=O)CCl [PCM-0102817, CC(C)(C)NC(=O)CNC(=O)CCl] | -16.378 | -16.378 | 0% | 41%
O=C(CCl)N1CCN(Cc2ccc(Cl)cc2)CC1 [PCM-0102818, O=C(CCl)N1CCN(Cc2ccc(Cl)cc2)CC1] | -15.454 | -15.454 | 0% | 17%
Cc1cccc(CNC(=O)CCl)c1 [PCM-0102821, Cc1cccc(CNC(=O)CCl)c1] | -16.579 | -16.579 | 0% | 86%
CC1CCc2ccccc2N1C(=O)CCl (centres unmarked) [PCM-0102822, CC1CCc2ccccc2N1C(=O)CCl] | -16.310 | -16.310 | 0% | 0%
O=C(CCl)N1CCC2(CC1)OCCO2 [PCM-0102823, O=C(CCl)N1CCC2(CC1)OCCO2] | -16.068 | -16.068 | 0% | 0%
O=C(CCl)N1CCCC2CCCCC21 (centres unmarked) [PCM-0102826, O=C(CCl)N1CCCC2CCCCC21] | -16.060 | -16.060 | 7% | 0%
COC(=O)C1(NC(=O)CCl)CCC(C)CC1 (centres unmarked) [PCM-0102827, COC(=O)C1(NC(=O)CCl)CCC(C)CC1] | -16.743 | -16.743 | 0% | 0%
CCC1CCCCN1C(=O)CCl (centres unmarked) [PCM-0102828, CCC1CCCCN1C(=O)CCl] | -16.282 | -16.282 | 4% | 0%
Cc1ccccc1CC(=O)NNC(=O)CCl [PCM-0102829, Cc1ccccc1CC(=O)NNC(=O)CCl] | -17.272 | -17.272 | 0% | 30%
CC1CN(C(=O)CCl)CCO1 (centres unmarked) [PCM-0102830, CC1CN(C(=O)CCl)CCO1] | -16.218 | -16.218 | 0% | 0%
